# Measured values published in publication PMC7318243, “Computationally Empowered Workflow Identifies Novel Covalent Allosteric Binders for KRAS^G12C” (Chemmedchem, 2020).
# Columns and labels:
# KRAS^G12C = target: T1, KRAS^G12C (Homo sapiens, UniProt P01116, C118S/C51S/C80L/G12C); experiment: Determination of kinact and KI by LC-MS occupancy over time; format: binding; conditions: for k inact (maximum potential rate of KRAS^G12C inactivation) / Ki: 10 µM KRAS^G12C, 10-100 µM inhibitor, 0-180 min; for Ki: read-out: K I (binding constant of the reversible binding event)
# T1 construct: made in house
# Experimental: (§1) 3.4 Covalent binding assay by mass spectrometry
# (§2) The percentage of covalent adduct formation at KRAS G12C was determined by intact mass determination. To this end, 25 µM recombinant KRAS mutant (G12C , C51S, C80L, C118S) was incubated with 25 µM compound (1% v/v DMSO final concentration) in 50 mM Tris, pH 8.0, 50 mM NaCl at room temperature for 2 h. Reaction mixture (20 µL) was acidified by addi tion of 4% v/v TFA (4 µL). LC-MS analysis was performed using a Waters SYNAPT G2 -S quadrupole time -of-flight mass spectrometer connected to a Waters nanoA CQUITY UPLC system. Samples were loaded onto a 2.1 × 5 mm MassPrep C4 guard column (Waters) and desalted with a short gradient (3 min) of increasing concentration of acetonitrile at a flow rate of 100 µL/min. Spectra were analyzed by using MassLynx v4.1 software and deconvoluted with the MaxEnt1 algorithm. Percent conversion was determined by the ratio of signal intensities of […] and KRASG12C + inhibitor. […]
# 3.6 Determination of k inact and KI
# The percentage of covalent adduct formation at KRASG12C was determined for compounds 1, 2 and 13 by intact mass determination. To this end, 25 µM of the same recombinant KRAS mutant as for the covalent binding assay (G12C, C51S, C80L, C118S) were incubated with 25 µM of compound (1% v/v final DMSO concentration) in 50 mM Tris, pH8, 50 mM NaCl at room temperature for 2 h. The reaction was acidified by adding 4 µL of 4% v/v TFA to 20 µL reaction […]
# Liquid chromatography-mass spectrometry (LC-MS) analysis was performed using a Waters SYNAPT G2-S quadrupole time-of-flight mass spectrometer connected to a Waters nanoAcquity UPLC system. Samples were loaded on a 2.1 x 5 mm mass prep C4 guard column (Waters) and desalted with a short grad ient (3 min) of increasing concentrations of acetonitrile at a flow rate of 100 µL/min. Spectra were analyzed by using MassLynx v4.1 software and deconvoluted with the MaxEnt1 algorithm. Percent of conversion was determined by the ratio of signal intensiti es of apo-KRAS and KRAS + inhibitor.
# The kinact / KI ratio was determined by measuring the total occupancy (% conversion) over time at different inhibitor concentrations. In detail, 10 µM KRASG12C were incubated in the same reaction buffer as above with 10 µM, 25 µM, 50 µM or 100 µM of inhibitor at different reaction times (0, 2, 20, 60 and 180 min), the reaction was quenched by adding 2 µL of 4% v/v TFA to 10 µL reaction volume and subsequently measured by LC -MS as described above. The observed occupancy percentage over time at a given inhibitor concentration was fit to the following equation using […]
# % conversion = vi [1 − exp(−k ∗ t)]
# The obtained kobs values were then plotted as a function of inhibitor concentration and fit to the […]
# to yield the kinact and KI.[26]
# [1] = target: T2, KRAS^G12C (recombinant KRAS mutant G12C, C51S, C80L, C118S) (Homo sapiens, UniProt P01116, C118S/C51S/C80L/G12C); experiment: Covalent binding assay by mass spectrometry (intact mass, % covalent adduct); conditions: 25 µM protein, 25 µM compound, room temperature, 2 h
# T2 construct: made in house
# Experimental: One of the most synthetically accessible compounds, 1,6‐naphthyridin‐5(6H)‐one (1), was prepared (Table 1; Scheme S1). Structurally close to 1, isoquinolin‐1(2H)‐one 2 derivatives were also considered for the exploration of structure‐activity relationships (SAR). To measure the proportion of inhibitor reacting with Cys12 of the KRAS^G12C mutant, the bound/unbound protein ratio was quantified by mass spectrometry (MS). Then, the inhibition potency of these compounds towards KRAS^G12C was evaluated in biochemical assays measuring the activation of GDP‐bound KRAS^G12C or KRAS^WT by SOS1.19 […]
# as §1, §2
# active RAS = experiment: Cellular assay for RAS activation (G-LISA); format: cell-based; conditions: 24 h treatment; read-out: Cellular IC50 (inhibition of active RAS formation)
# Experimental: SOS1CAT. All steps of the assay were performed at 20 °C. A volume of 2.5 µL of the KRASG12C working solution was added to all wells of the test plate using a Multidrop dispenser (Thermo LabSystems). After 180 min, 2.5 µL of the SOS1CAT working solution was added to all wells, except for the inhibitor control solution wells. After 30 min incubation, HTRF was measured.
# In the KRASWT activation by SOS1cat assay, human SOS1CAT mediated loading of GST-KRASWT– GDP was quantified with a fluorescent GTP analogue. The assay was performed as described above for the KRASG12C activation. GST-KRASG12C was replaced by GST-KRASWT, used at a final […]
# as §1
# The percentage of covalent adduct formation at KRAS G12C was determined by intact mass determination. To this end, 25 µM recombinant KRAS mutant (G12C , C51S, C80L, C118S) was incubated with 25 µM compound (1% v/v DMSO final concentration) in 50 mM Tris, pH 8.0, 50 mM NaCl at room temperature for 2 h. Reaction mixture (20 µL) was acidified by addi tion of 4% v/v TFA (4 µL). […] Spectra were analyzed by using MassLynx v4.1 software and deconvoluted with the MaxEnt1 algorithm. Percent conversion was determined by the ratio of signal intensities of […] and KRASG12C + inhibitor. […]
# Using the G-LISA Kit (Cytoskeleton BK131, RAS Activation Assay), 50000 cells are seeded in a 96 well plate for 72 h at 37 °C (10% FBS, DMEM/Ham's F-12, 2 mM L-Glutamine). […] Finally, the content of active R AS is measured by detecting the absorbance at 490 nm. […]
# The percentage of covalent adduct formation at KRASG12C was determined for compounds 1, 2 and 13 by intact mass determination. […]
# Liquid chromatography-mass spectrometry (LC-MS) analysis was performed using a Waters SYNAPT G2-S quadrupole time-of-flight mass spectrometer connected to a Waters nanoAcquity UPLC system. […] Spectra were analyzed by using MassLynx v4.1 software and deconvoluted with the MaxEnt1 algorithm. Percent of conversion was determined by the ratio of signal intensiti es of apo-KRAS and KRAS + inhibitor.
SMILES,k inact/K I (KRAS^G12C) [M⁻¹ s⁻¹],k inact (maximum potential rate of KRAS^G12C inactivation) (KRAS^G12C) [s⁻¹],Ki (KRAS^G12C) [µM],MS assay [% binding] (KRAS^G12C bound fraction) [1] [%],IC50 (active RAS) [µM]
"C=CC(=O)N1CCC(c2cc3ncc(-c4c(O)cccc4F)cc3c(=O)[nH]2)C1 (stereo not drawn) [Compound 1, 3-(2-Fluoro-6-hydroxyphenyl)-7-[1-(prop-2-enoyl)pyrrolidin-3-yl]-1,6-naphthyridin-5(6H)-one]",26.72,0.00105,39.3,80,> 30
"C=CC(=O)N1CCC(c2cc3ccc(-c4c(O)cccc4F)cc3c(=O)[nH]2)C1 (stereo not drawn) [Compound 2, 7-(2-Fluoro-6-hydroxyphenyl)-3-[1-(prop-2-enoyl)pyrrolidin-3-yl]isoquinolin-1(2H)-one]",55.05,0.00024,4.4,35,> 30
"C=CC(=O)N1CCC(c2cc3cnc(-c4c(O)cccc4F)cc3c(=O)[nH]2)C1 (stereo not drawn) [Compound 13, 7-(2-Fluoro-6-hydroxyphenyl)-3-[1-(prop-2-enoyl)pyrrolidin-3-yl]-2,6-naphthyridin-1(2H)-one]",49.38,0.00159,32.2,73,22
